US20200368322A1, “METHODS OF IDENTIFYING AND USING AGENTS FOR TREATING DISEASES ASSOCIATED WITH INTESTINAL BARRIER DYSFUNCTION” (Yeda Research and Development Co. Ltd., priority 2018, published 2020)

Key:
[1] = test system: Caco-2 cells; assay: In vitro barrier assessment: ZO-1 staining and junction tortuosity of Caco-2 cells treated with glucose; type: cell-based; details: glucose plus 2-DG
Method: Caco-2 cells were purchased from ATCC. Cells were routinely grown in regular tissue culture medium (DMEM, 10% FCS, penicillin/streptomycin, GlutaMAX, 1 g/l glucose). For experiments, cells were seeded onto 96-well glass-bottom plates coated with fibronectin 25 μg/ml 70 000 cells/well and allowed to grow for 48 hours to form confluent monolayer before treatment with indicated concentration of glucose for indicated time period. […] Tight junctions labeling was performed with primary anti-ZO-1 mouse monoclonal antibodies (BD Transduction Laboratories) 1.25 μg/ml and secondary Alexa Fluor 488 goat anti-mouse antibodies (Invitrogen) 10 μg/ml. […] Cell images were segmented using Morphological Segmentation ImageJ plug-in and junction tortuosity was calculated as a ratio between junction length and Euclidian distance between its ends.
Hyperglycemia Reprograms Intestinal Epithelial Cells To determine whether glucose acted directly on intestinal epithelial cells to affect barrier function, an in vitro system of cultured intestinal epithelial (Caco-2) cells was used. […] Tight junction integrity was analyzed through automated high-throughput analysis of ZO-1 staining patterns. […] Global reprogramming of the epithelial transcriptome was detected in hyperglycemic mice (FIG. 41), in which more than 1,000 genes were differentially expressed compared to vehicle-treated controls (FIG. 4J). […]

[2] = test system: Citrobacter rodentium; assay: Citrobacter rodentium infection (bioluminescence, tissue CFU), Example 1; type: in vivo, mouse
Method: (§1) To induce hyperglycemia, streptozotocin (STZ, Sigma-Aldrich) was diluted freshly in PBS and injected i.p. at 100 mg/kg at two consecutive days. Control mice were injected with PBS. Serum glucose measurements were performed using glucose strips (Perrigo). Hyperglycemic mice were used for further experimentation 2-3 weeks after STZ injection). For continuous insulin administration, ALZET osmotic pumps were used. Pumps were implanted subcutaneously in the back of the mice for 4 weeks. Insulin was delivered at 0.25 U/day. 2-deoxyglucose (2-DG) was injected i.p. twice daily at 5 mg per injection as previously described (47). Injections were performed for 10 consecutive days. Leptin antagonist was administered daily by intraperitoneal injection of 25 mg/kg as previously described (18).
Mice were infected by oral gavage with 200 μl of an overnight culture of LB containing approximately 1×10^9 colony-forming units (CFU) of a kanamycin-resistant, luciferase-expressing derivative of C. rodentium DBS100 (ICC180) as previously described (16). For in vivo bioluminescent imaging, mice were anesthetized with Ketamine/Xylazine. Bioluminescence was quantified using an IVIS2000 instrument and Living Image software (Perkin Elmer). For ex vivo luminescence analysis, colons were resected, extensively washed from all fecal matter and immediately imaged. For CFU counts, tissues were collected, weighed and homogenized in 1 ml of sterile PBS. Tissue homogenates were serially diluted in PBS and plated on to LB kanamycin plates, incubated overnight at 37° C., and bacterial colonies were enumerated the following day, normalizing them to the tissue weight.

[3] = test system: microbial pattern recognition receptor (PRR) ligands; assay: Quantification of microbial products at systemic sites (PRR reporter cell lines); type: in vivo, mouse; details: STZ-treated mice given the agent (insulin 0.25 U per day; 2-DG i.p. twice daily 5 mg)
Method: as §1, with “(18). The following PRR reporter cell lines were obtained from Invivogen (HEK-Blue TLR and NLR reporter cell lines): TLR2, TLR3, TLR4, TLR5, TLR7, TLR9, NOD1, NOD2. Extracts from spleen, liver, and serum were homogenized and added to reporter cell lines incubated with HEK-Blue detection medium (Invivogen) according to the manufacturer's instructions.” for “(18).”

[4] = test system: intestinal epithelial cells; assay: RNA-sequencing of purified intestinal epithelial cells; type: in vivo, mouse; details: STZ-treated mice, 2-DG administration
Method: Intestinal tissue was excised from mice, thoroughly rinsed with ice-cold PBS to clean the tissue from fecal matter, and opened longitudinally. The tissue was then cut into pieces of 1 cm length and incubated in HBSS containing 2 mM EDTA and 1 mM DTT at 37° C. for 30 mins while shaking at 130 rpm. Epithelial cells were collected, filtered, centrifuged, and subsequently stained with anti-EpCAM and anti-CD45 antibodies (Biolegend) for 30 mins on ice. Cells were then washed, resuspended and sorted into lysis/binding buffer (Life Technologies) using a FACS-FUSION cell sorter (BD).
10^4 cells from each population were sorted into 80 μl of lysis/binding buffer (Life Technologies). mRNA was captured with 12 μl of Dynabeads oligo(dT) (Life Technologies), washed, and eluted at 70° C. with 10 μl of 10 mM Tris-Cl (pH 7.5). A derivation of MARS-seq was used as described (51). An average of 1 million reads was sequenced per library (Illumina NextSeq). The reads were aligned to the mouse reference genome (NCBI 37, mm9) using TopHat v2.0.10 (52) with default parameters. Expression levels were calculated and normalized using ESAT software (garberlabdotumassmeddotedu/software/esat). Duplicate reads were filtered if they aligned to the same base and had identical UMIs. […]

[5] = test system: tight junctions of Caco2 cells; assay: Caco2 tight junction morphology (cingulin or ZO-1 staining, tortuosity); type: cell-based, human
Method: (§2) CaCo-2 cells were purchased from ATCC. Cells were routinely grown in regular tissue culture medium (DMEM, 10% FCS, penicillin/streptomycin, GlutaMAX). For experiments with differing glucose concentrations, cells were routinely cultured in low-glucose DMEM (1 g/l glucose). Cells were seeded onto 96-well glass-bottom plates coated with either fibronectin or collagen 70 000 cells/well and allowed to grow for 24 hours to form confluent monolayer before indicated treatments.
(§3) For high resolution images of manually selected representative fields, a DeltaVision wide field fluorescent microscope (GE Healthcare) equipped with 40×UPlanFLN or 60×/1.42 PlanApo N oil objective (Olympus) was used. For multi-well plate scanning, the following automated imaging stations were used: DeltaVision microscope with plate scanning regiment, Hermes imaging station (IDEA bio-Medical) or ImagExpress microXL imaging station (Molecular Devices) equipped by 40× air objectives. In all cases in order to cover the curvature of apical surface of epithelial monolayer 5 μm thick z-stack was acquired around the tight junction plane (identified by best focus algorithm) and resulting image was generated as a maximum projection of all optical sections.
Cell images were segmented using Morphological Segmentation ImageJ plug-in and junction tortuosity was calculated as a ratio between junction length and Euclidian distance between its ends.

[6] = test system: focal adhesions of Caco2 cells; assay: Caco2 cell-matrix focal adhesions (paxillin staining); type: cell-based, human; details: 10 mM acetyl-proline, 1 mM putrescine, 10 mM histamine, 5 mM spermine
Method: as §2, §3

[7] = test system: mice with DSS-induced colitis; details: putrescine oral gavage 200 mg/kg twice daily; 2% DSS in drinking water
Method: (§4) For putrescine treatment, mice received putrescine by oral gavage with a dose of 200 mg/kg twice daily for 10 days prior to and during DSS treatment or Citrobacter rodentium infection.

[8] = test system: Citrobacter rodentium; type: in vivo, mouse; details: putrescine oral gavage 200 mg/kg twice daily
Method: as §4
A kanamycin-resistant and luciferase-expressing derivative of Citrobacter rodentium DBS100 (ICC180) was used for infection as previously described (Thaiss et al., Science. 2018 Mar. 23; 359(6382):1376-1383).
Mice were infected with 200 μl solution containing approximately 1×10^9 colony-forming units (CFU) of overnight cultured bacteria by oral gavage. Infection was monitored by enumerating stool CFU and measuring abdominal bioluminescent. For in vivo bioluminescent imaging, mice were anesthetized and bioluminescence was measured using an IVIS2000 instrument and Living Image software (Perkin Elmer). For ex vivo luminescence quantification, the whole colons were dissected, extensively washed from all luminal contents, longitudinally cut open and immediately imaged. For CFU counts, stool or tissues were collected, weighed and homogenized in sterile phosphate buffered saline (PBS−/−). Homogenates were then serially diluted in PBS−/− and plated on LB kanamycin plates, incubated overnight at 37° C. Bacterial CFUs were counted the next day, normalizing them to the stool or tissue weight.

| SMILES | glucose-induced barrier aberrations in vitro [1] | detectable pathogen load in the mesenteric lymph nodes, spleens and livers ([2]; C. rodentium-infected db/db mice, 2-DG treatment) | bacterial growth in the intestinal lumen ([2]; STZ-treated C. rodentium-infected mice, 2-DG treatment) | enhanced C. rodentium growth and pathogenic translocation / host defense against C. rodentium ([2]; STZ-treated mice given the agent (insulin 0.25 U per day; 2-DG i.p. twice daily 5 mg)) | systemic dissemination of microbial products [3] | transcriptional reprogramming of the epithelium [4] | recovery of the TJs after washout ([5]; CaCo2 cells pretreated 24 hrs with disruptor, then regular culture medium for 24 hours) | TJ structure after disruptor treatment ([5]; CaCo2 cells, 24 hrs, LPS 300 ng/ml, Histamine 10 mM, putrescine 1 mM) | effect on tight junctions in metabolite screen ([5]; Caco2 cells) | tight junction morphology ([5]; Caco2 cells, 10 mM acetyl-proline, 1 mM putrescine, 10 mM histamine, 5 mM spermine) | focal adhesions size [6] | effect in mice with DSS-induced colitis [7] | effect in mice with C. rodentium infection [8] |
| --- | --- | --- | --- | --- | --- | --- | --- | --- | --- | --- | --- | --- | --- |
| O=CC[C@@H](O)[C@H](O)[C@H](O)CO [2-DG, 2-deoxyglucose] | rescued glucose-induced barrier aberrations in vitro in a dose-dependent manner | strongly reduced | unaffected | restored host defense against C. rodentium | prevented the systemic dissemination of microbial products | blocked transcriptional reprogramming in STZ-treated mice |  |  |  |  |  |  |  |
| NCCCCN [putrescine] |  |  |  |  |  |  | partial recovery | pronounced TJ disruption | Disruption | distortion of tight junction morphology | increase of focal adhesions size | disruptive effect | disruptive effect |
